Literature values, collected in US7410699B2, “Finely particulate composite containing carbon compound encapsulated in a polymer micelle of a block copolymer” (Japan Science and Technology Agency, priority 2003, dated 2008).

Conditions: Journal of Colloid and Interface Science, 263, (2003), 1-3

SMILES: c12c3c4c5c1c1c6c7c2c2c8c3c3c9c4c4c%10c5c5c1c1c6c6c%11c7c2c2c7c8c3c3c8c9c4c4c9c%10c5c5c1c1c6c6c%11c2c2c7c3c3c8c4c4c9c5c1c1c6c2c3c41 [fullerene]
- water-solubility (amount of solubilized fullerene): 21.0 µg/mL
